Drawing on patent US12624018B1, “Inhibitors of RIPK2 and medical uses thereof” (Odyssey Therapeutics, Inc., priority 2022, dated 2026), this text covers IC50 for 29 compounds.

The target of the test is T1, RIPK2 enzyme (Homo sapiens, UniProt O43353).
T1 construct: purchased Carna 09-128
In words: RIPK2 inhibition (ADP-Glo Kinase Assay). In kind it is biochemical. To be noted: RIPK2 5 nM, ATP 150 μM, MBP substrate, read-out: RIPK2 IC50. In short, it runs like this: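 Human RIPK2 (5 nM) preincubated with compound 30 min at room temperature in 50 mM HEPES pH 7.5, 10 mM MgCl2, 2 mM DTT, 1 mM EGTA, 0.01% Brij-35, 0.05% BSA; native swine MBP as substrate. ADP formed quantified by ADP-Glo luminescence; percent inhibition relative to DMSO and no-enzyme controls.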
For orientation: ADP-Glo turns the ADP formed in a reaction into a luminescent signal.

T1 sequence (O43353 1-299 limits assumed): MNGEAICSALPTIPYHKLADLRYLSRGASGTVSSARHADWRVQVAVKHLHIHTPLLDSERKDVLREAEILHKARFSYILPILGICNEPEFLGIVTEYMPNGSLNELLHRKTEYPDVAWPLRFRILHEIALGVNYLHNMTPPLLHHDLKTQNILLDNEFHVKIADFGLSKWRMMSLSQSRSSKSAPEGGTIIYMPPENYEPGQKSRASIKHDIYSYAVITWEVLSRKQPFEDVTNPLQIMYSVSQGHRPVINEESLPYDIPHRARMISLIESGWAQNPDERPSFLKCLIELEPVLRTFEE

By IC50 is commonly meant the point on the concentration scale where inhibition reaches its midpoint. As to `CC(C)(C)n1cc(NC(=O)Cc2ccc(Oc3ccnc4ccc(OC5CCNCC5)cc34)cc2F)cn1` [Compound 81, N-(1-(tert-butyl)-1H-pyrazol-4-yl)-2-(2-fluoro-4-((6-(piperidin-4-yloxy)quinolin-4-yl)oxy)phenyl) acetamide], the IC50 was < 2.5 nM. The result for `Cc1cc(CC(=O)Nc2cnn(C(C)(C)C)c2)ccc1Oc1ncnc2ccc(OC3CCNCC3)cc12` [Compound 85, N-(1-(tert-butyl)-1H-pyrazol-4-yl)-2-(3-methyl-4-((6-(piperidin-4-yloxy)quinazolin-4-yl)oxy)phenyl) acetamide] reads 5.1 nM; that for `Cc1cc(CC(=O)Nc2cc(C(C)(C)C)n[nH]2)ccc1Oc1ccnc2ccc(S(C)(=O)=O)cc12` [Compound 87, N-(5-(tert-butyl)-1H-pyrazol-3-yl)-2-(3-methyl-4-((6-(methylsulfonyl)quinolin-4-yl)oxy)phenyl)acetamide], < 2.5 nM. The result for `Cc1cc(CC(=O)Nc2cc(C(C)(C)C)n[nH]2)ccc1Oc1ccnc2ccc(S(C)(=N)=O)cc12` (centres unmarked) [Compound 88, N-(5-(tert-butyl)-1H-pyrazol-3-yl)-2-(3-methyl-4-((6-(S-methylsulfonimidoyl)quinolin-4-yl)oxy)phenyl)acetamide] reads < 2.5 nM. The value for `CC(C)(C)n1cc(NC(=O)Cc2ccc(Oc3ccnc4ccc(S(C)(=O)=O)cc34)c(Cl)c2)cn1` [Compound 89, N-(1-(tert-butyl)-1H-pyrazol-4-yl)-2-(3-chloro-4-((6-(methylsulfonyl)quinolin-4-yl)oxy)phenyl)acetamide] was < 2.5 nM; that for `CC(C)(C)n1cc(NC(=O)Cc2ccc(Oc3ccnc4ccc(S(C)(=N)=O)cc34)c(Cl)c2)cn1` (centres unmarked) [Compound 90, N-(1-(tert-butyl)-1H-pyrazol-4-yl)-2-(3-chloro-4-((6-(S-methylsulfonimidoyl)quinolin-4-yl)oxy)phenyl)acetamide] was 2.9 nM; that for `[2H]C([2H])([2H])c1cc(CC(=O)Nc2cnn(C(C)(C)C)c2)ccc1Oc1ccnc2ccc(S(C)(=O)=O)cc12` [Compound 93, N-(1-(tert-butyl)-1H-pyrazol-4-yl)-2-(3-(methyl-d3)-4-((6-(methylsulfonyl)quinolin-4-yl)oxy)phenyl)acetamide] was < 2.5 nM. As to `CCN1CCC(Oc2ccc3nccc(Oc4ccc(CC(=O)Nc5cnn(C(C)(C)C)c5)cc4C)c3c2)CC1` [Compound 94, N-(1-(tert-butyl)-1H-pyrazol-4-yl)-2-(4-((6-((1-ethylpiperidin-4-yl)oxy)quinolin-4-yl)oxy)-3-methylphenyl) acetamide], the half-maximal inhibitory concentration (IC50) is < 2.5 nM.

As to `Cc1cc(CC(=O)Nc2cnn(C(C)(C)C)c2)ccc1Oc1ccnc2ccc(OC3CCN(C4CC4)CC3)cc12` [Compound 95, N-(1-(tert-butyl)-1H-pyrazol-4-yl)-2-(4-((6-((1-cyclopropyl-piperidin-4-yl)oxy)quinolin-4-yl)oxy)-3-methylphenyl) acetamide], the concentration for half-maximal inhibition (IC50) is < 2.5 nM. As for `Cc1cc(CC(=O)Nc2cnn(C(C)(C)C)c2)ccc1Oc1ccnc2ccc(OC3CCN(C4COC4)CC3)cc12` [Compound 96, N-(1-(tert-butyl)-1H-pyrazol-4-yl)-2-(3-methyl-4-((6-((1-(oxetan-3-yl)piperidin-4-yl)oxy)quinolin-4-yl)oxy)phenyl) acetamide], the IC50 was < 2.5 nM. As for `Cc1cc(CC(=O)Nc2cnn(C(C)(C)C)c2)ccc1Oc1ccnc2ccc(S(=O)(=O)C3CCN(C)CC3)cc12` [Compound 97, N-(1-(tert-butyl)-1H-pyrazol-4-yl)-2-(3-methyl-4-((6-((1-methylpiperidin-4-yl)sulfonyl)quinolin-4-yl)oxy)phenyl)acetamide], the IC50 is < 2.5 nM. The result for `Cc1cc(CC(=O)Nc2cnn(C(C)(C)C)c2)ccc1Oc1ccnc2ccc(S(=O)(=O)C3CCOCC3)cc12` [Compound 98, N-(1-(tert-butyl)-1H-pyrazol-4-yl)-2-(3-methyl-4-((6-((tetrahydro-2H-pyran-4-yl)sulfonyl)quinolin-4-yl)oxy)phenyl)acetamide] reads < 2.5 nM; that for `Cc1cc(CC(=O)Nc2cnn(C(C)(C)C)c2)ccc1Oc1ccnc2ccc(S(=O)(=O)C3CC3)cc12` [Compound 100, N-(1-(tert-butyl)-1H-pyrazol-4-yl)-2-(4-((6-(cyclopropylsulfonyl)quinolin-4-yl)oxy)-3-methylphenyl)acetamide], < 2.5 nM; that for `Cc1cc(CC(=O)Nc2cnn(C(C)(C)C)c2)ccc1Oc1ccnc2ccc(S(=O)(=O)C3COC3)cc12` [Compound 101, N-(1-(tert-butyl)-1H-pyrazol-4-yl)-2-(3-methyl-4-((6-(oxetan-3-ylsulfonyl)quinolin-4-yl)oxy)phenyl)acetamide], < 2.5 nM. As to `Cc1c(Oc2ccnc3ccc(OC4CCNCC4)cc23)ccc(CC(=O)Nc2cnn(C(C)(C)C)c2)c1F` [Compound 102, N-(1-(tert-butyl)-1H-pyrazol-4-yl)-2-(2-fluoro-3-methyl-4-((6-(piperidin-4-yloxy)quinolin-4-yl)oxy)phenyl) acetamide], the IC50 was < 2.5 nM. The result for `Cc1c(Oc2ccnc3ccc(OC4CCN(C)CC4)cc23)ccc(CC(=O)Nc2cnn(C(C)(C)C)c2)c1F` [Compound 103, N-(1-(tert-butyl)-1H-pyrazol-4-yl)-2-(2-fluoro-3-methyl-4-((6-((1-methylpiperidin-4-yl)oxy)quinolin-4-yl)oxy)phenyl)acetamide] reads < 2.5 nM; that for `[2H]C([2H])([2H])c1cc(CC(=O)Nc2cnn(C(C)(C)C)c2)ccc1Oc1ccnc2ccc(OC3CCNCC3)cc12` [Compound 104, N-(1-(tert-butyl)-1H-pyrazol-4-yl)-2-(3-(methyl-d3)-4-((6-(piperidin-4-yloxy)quinolin-4-yl)oxy)phenyl) acetamide], < 2.5 nM; that for `[2H]C([2H])([2H])c1cc(CC(=O)Nc2cnn(C(C)(C)C)c2)ccc1Oc1ccnc2ccc(OC3CCN(C)CC3)cc12` [Compound 105, N-(1-(tert-butyl)-1H-pyrazol-4-yl)-2-(3-(methyl-d3)-4-((6-((1-methyl-piperidin-4-yl)oxy)quinolin-4-yl)oxy)phenyl) acetamide], < 2.5 nM.

`Cc1c(Oc2ncnc3ccc(OC4CCNCC4)cc23)ccc(CC(=O)Nc2cnn(C(C)(C)C)c2)c1F` [Compound 106, N-(1-(tert-butyl)-1H-pyrazol-4-yl)-2-(2-fluoro-3-methyl-4-((6-(piperidin-4-yloxy)quinazolin-4-yl)oxy)phenyl) acetamide]: the IC50 was < 2.5 nM. The value for `Cc1c(Oc2ncnc3ccc(OC4CCN(C)CC4)cc23)ccc(CC(=O)Nc2cnn(C(C)(C)C)c2)c1F` [Compound 107, N-(1-(tert-butyl)-1H-pyrazol-4-yl)-2-(2-fluoro-3-methyl-4-((6-((1-methyl-piperidin-4-yl)oxy)quinazolin-4-yl)oxy)phenyl) acetamide] was < 2.5 nM; that for `CCN1CCC(Oc2ccc3nccc(Oc4cnc(CC(=O)Nc5cnn(C(C)(C)C)c5)c(F)c4)c3c2)CC1` [Compound 108, N-(1-(tert-butyl)-1H-pyrazol-4-yl)-2-(5-((6-((1-ethylpiperidin-4-yl)oxy)quinolin-4-yl)oxy)-3-fluoropyridin-2-yl)acetamide] was 11.3 nM. Take `CCN1CCC(Oc2ccc3ncnc(Oc4ccc(CC(=O)Nc5cnn(C(C)(C)C)c5)cc4C)c3c2)CC1` [Compound 109, N-(1-(tert-butyl)-1H-pyrazol-4-yl)-2-(4-((6-((1-ethyl-piperidin-4-yl)oxy)quinazolin-4-yl)oxy)-3-methylphenyl) acetamide]: the IC50 turned out to be 3.9 nM. The value for `Cc1cc(CC(=O)Nc2cnn(C(C)(C)C)c2)ccc1Oc1ccnc2ccc(OC3CCN(CC(F)(F)F)CC3)cc12` [Compound 110, N-(1-(tert-butyl)-1H-pyrazol-4-yl)-2-(3-methyl-4-((6-((1-(2,2,2-trifluoroethyl)piperidin-4-yl)oxy)quinolin-4-yl)oxy)phenyl) acetamide] was < 2.5 nM; that for `Cc1cc(CC(=O)Nc2cnn(C(C)(C)C)c2)ccc1Oc1ncnc2ccc(OC3CCN(CC(F)(F)F)CC3)cc12` [Compound 111, N-(1-(tert-butyl)-1H-pyrazol-4-yl)-2-(3-methyl-4-((6-((1-(2,2,2-trifluoroethyl)piperidin-4-yl)oxy)quinazolin-4-yl)oxy)phenyl) acetamide] was 36.4 nM. The value for `CC(C)(C)n1cc(NC(=O)Cc2ncc(Oc3ncnc4ccc(OC5CCN(CC(F)(F)F)CC5)cc34)cc2F)cn1` [Compound 112, N-(1-(tert-butyl)-1H-pyrazol-4-yl)-2-(3-fluoro-5-((6-((1-(2,2,2-trifluoroethyl)piperidin-4-yl)oxy)quinazolin-4-yl)oxy)pyridin-2-yl)acetamide] was 20.8 nM; that for `Cc1cc(CC(=O)Nc2cnn(C(C)(C)C)c2)c(F)cc1Oc1ccnc2ccc(OC3CCNCC3)cc12` [Compound 114, N-(1-(tert-butyl)-1H-pyrazol-4-yl)-2-(2-fluoro-5-methyl-4-((6-(piperidin-4-yloxy)quinolin-4-yl)oxy)phenyl) acetamide] was < 2.5 nM. For the compound `Cc1cc(CC(=O)Nc2cnn(C(C)(C)C)c2)c(F)cc1Oc1ccnc2ccc(OC3CCN(C)CC3)cc12` [Compound 115, N-(1-(tert-butyl)-1H-pyrazol-4-yl)-2-(2-fluoro-5-methyl-4-((6-((1-methyl-piperidin-4-yl)oxy)quinolin-4-yl)oxy)phenyl) acetamide], the IC50 is < 2.5 nM. The result for `Cc1cc(CC(=O)Nc2cnn(C(C)(C)C)c2)c(F)cc1Oc1ncnc2ccc(OC3CCNCC3)cc12` [Compound 116] reads < 2.5 nM; that for `Cc1cc(CC(=O)Nc2cnn(C(C)(C)C)c2)c(F)cc1Oc1ncnc2ccc(OC3CCN(C)CC3)cc12` [Compound 117, N-(1-(tert-butyl)-1H-pyrazol-4-yl)-2-(2-fluoro-5-methyl-4-((6-((1-methyl-piperidin-4-yl)oxy)quinazolin-4-yl)oxy)phenyl) acetamide], < 2.5 nM.
